# Source: paper PMC6467771 (Journal of medicinal chemistry, 2019)
# Target: FmlH (Escherichia coli, UniProt Q1RBS0)
# Format: binding, Escherichia coli (UPEC, CFT073)
# Conditions: ELISA IC50 ratio
Structure (SMILES),fold drop in activity relative to 1,fold greater potency / improvement in activity relative to 1
"COc1ccc(C(=O)O)cc1-c1ccccc1O[C@@H]1O[C@H](CO)[C@H](O)[C@H](O)[C@H]1NC(C)=O [Compound 31, 2’-(((2S,3R,4R,5R,6R)-3-Acetamido-4,5-dihydroxy-6 (hydroxymethyl)tetrahydro-2H-pyran-2-yl)oxy)-6-methoxy-[1,1’- biphenyl]-3-carboxylic Acid]",6 fold,
"CC(=O)N[C@H]1[C@H](Oc2ccccc2-c2cccc(NS(C)(=O)=O)c2)O[C@H](CO)[C@H](O)[C@@H]1O [Compound 50, N-((2S,3R,4R,5R,6R)-4,5-Dihydroxy-6-(hydroxymethyl)-2-((3’- (methylsulfonamido)-[1,1’-biphenyl]-2-yl)oxy)tetrahydro-2H-pyran-3-yl)acetamide]",,3 fold

# Same assay, conditions: ELISA IC50 ratio; 50 vs 51, 30 vs 29
row,Structure (SMILES),fold more potent than the matched pair Gal/GalNAc derivative
1,"O=C(O)c1cc(-c2ccccc2O[C@@H]2O[C@H](CO)[C@H](O)[C@H](O)[C@H]2O)cc([N+](=O)[O-])c1 [Compound 30, 5-Nitro-2’-(((2S,3R,4S,5R,6R)-3,4,5-trihydroxy-6-(hydroxymethyl)-tetrahydro-2H-pyran-2-yl)oxy)-[1,1’-biphenyl]-3-carboxylic Acid]",6 fold
2,"CC(=O)N[C@H]1[C@H](Oc2ccccc2-c2cccc(NS(C)(=O)=O)c2)O[C@H](CO)[C@H](O)[C@@H]1O [Compound 50, N-((2S,3R,4R,5R,6R)-4,5-Dihydroxy-6-(hydroxymethyl)-2-((3’- (methylsulfonamido)-[1,1’-biphenyl]-2-yl)oxy)tetrahydro-2H-pyran-3-yl)acetamide]",about 5 fold

# Same assay, conditions: IC50, ELISA, FmlH binding to desialylated bovine submaxillary mucin; average of four or more replicates
row,Structure (SMILES),IC50
1,"CC(=O)NC1[C@H](Oc2ccccc2-c2cccc(NC(=O)C(F)(F)F)c2)O[C@H](CO)[C@H](O)[C@@H]1O (stereo in doubt) [Compound 44, N-(2’-(((2S,3S,4R,5R)-3-Acetamido-4,5-dihydroxy-6 (hydroxymethyl)tetrahydro-2H-pyran-2-yl)oxy)-[1,1’-biphenyl]-3-yl)-2,2,2-trifluoroacetamide]",370 nM
2,"CC(=O)NC1[C@H](Oc2cccc(C)c2-c2cccc(NS(=O)(=O)N(C)C)c2)O[C@H](CO)[C@H](O)[C@@H]1O (stereo in doubt) [Compound 87, N-((2S,3S,4R,5R)-2-((3’-((N,N-Dimethylsulfamoyl)amino)-6-methyl-[1,1’-biphenyl]-2-yl)oxy)-4,5-dihydroxy-6-(hydroxymethyl)-tetrahydro-2H-pyran-3-yl)acetamide]",77 nM
3,"CC(=O)N[C@H]1[C@H](Oc2ccccc2-c2cc(C(=O)O)cc([N+](=O)[O-])c2)O[C@H](CO)[C@H](O)[C@@H]1O [Compound 29, 2’-(((2S,3S/4R/5R)-3-Acetamido-4,5-dihydroxy-6-(hydroxymethyl)tetrahydro-2H-pyran-2-yl)oxy)-5-nitro-[1, 1’-bi-phenyl]-3-carboxylic Acid]",2200 nM
4,"O=C(O)c1cc(-c2ccccc2O[C@@H]2O[C@H](CO)[C@H](O)[C@H](O)[C@H]2O)cc([N+](=O)[O-])c1 [Compound 30, 5-Nitro-2’-(((2S,3R,4S,5R,6R)-3,4,5-trihydroxy-6-(hydroxymethyl)-tetrahydro-2H-pyran-2-yl)oxy)-[1,1’-biphenyl]-3-carboxylic Acid]",280 nM
5,"COc1ccc(C(=O)O)cc1-c1ccccc1O[C@@H]1O[C@H](CO)[C@H](O)[C@H](O)[C@H]1NC(C)=O [Compound 31, 2’-(((2S,3R,4R,5R,6R)-3-Acetamido-4,5-dihydroxy-6 (hydroxymethyl)tetrahydro-2H-pyran-2-yl)oxy)-6-methoxy-[1,1’- biphenyl]-3-carboxylic Acid]",3900 nM
6,"CC(=O)N[C@H]1[C@H](Oc2ccccc2-c2cccc(O)c2)O[C@H](CO)[C@H](O)[C@@H]1O [Compound 32, N-((2S,3R,4R,5R,6R)-4,5-Dihydroxy-2-((3’-hydroxy-[1,1’ biphenyl]-2-yl)oxy)-6-(hydroxymethyl)tetrahydro-2H-pyran-3-yl)-acetamide]",700 nM
7,"CC(=O)N[C@H]1[C@H](Oc2ccccc2-c2cccc(OS(C)(=O)=O)c2)O[C@H](CO)[C@H](O)[C@@H]1O [Compound 33, 2’-(((2S,3R,4R,5R,6R)-3-Acetamido-4,5-dihydroxy-6-(hydroxymethyl)tetrahydro-2H-pyran-2-yl)oxy)-[1,1’-biphenyl]-3-yl methanesulfonate]",890 nM
8,"COc1ccc(O)cc1-c1ccccc1O[C@@H]1O[C@H](CO)[C@H](O)[C@H](O)[C@H]1NC(C)=O [Compound 34, N-((2S,3R,4R,5R,6R)-4,5-Dihydroxy-2-((5’-hydroxy-2’ methoxy-[1,1’-biphenyl]-2-yl)oxy)-6-(hydroxymethyl)tetrahydro-2H-pyran-3-yl)acetamide]",510 nM
9,"COc1ccc(OS(C)(=O)=O)cc1-c1ccccc1O[C@@H]1O[C@H](CO)[C@H](O)[C@H](O)[C@H]1NC(C)=O [Compound 35, 2’-(((2S,3R,4R,5R,6R)-3-Acetamido-4,5-dihydroxy-6 (hydroxymethyl)tetrahydro-2H-pyran-2-yl)oxy)-6-methoxy-[1,1’-biphenyl]-3-yl Methanesulfonate]",3700 nM
10,"CC(=O)N[C@H]1[C@H](Oc2ccccc2-c2cccc(F)c2)O[C@H](CO)[C@H](O)[C@@H]1O [Compound 36, N-((2S,3R,4R,5R,6R)-2-((3 ‘-Fluoro-[1,1’-biphenyl]-2-yl)oxy)-4,5-dihydroxy-6-(hydroxymethyl)tetrahydro-2H-pyran-3-yl)acetamide]",1500 nM
11,"COc1cccc(-c2ccccc2O[C@@H]2O[C@H](CO)[C@H](O)[C@H](O)[C@H]2NC(C)=O)c1 [Compound 37, N-((2S,3R,4R,5R,6R)-4,5-Dihydroxy-6-(hydroxymethyl)-2-((3’-me-thoxy-[1,1’-biphenyl]-2-yl)oxy)tetrahydro-2H-pyran-3-yl)-acetamide]",2000 nM
12,"CC(=O)N[C@H]1[C@H](Oc2ccccc2-c2cccc([N+](=O)[O-])c2)O[C@H](CO)[C@H](O)[C@@H]1O [Compound 38, N-((2S,3R,4R,5R,6R)-4,5-Dihydroxy-6-(hydroxymethyl)-2-((3’-nitro-[1,1’-biphenyl]-2-yl)oxy)tetrahydro-2H-pyran-3-yl)acetamide]",2700 nM
13,"CC(=O)N[C@H]1[C@H](Oc2ccccc2-c2cccc(C#N)c2)O[C@H](CO)[C@H](O)[C@@H]1O [Compound 39, N-((2S,3R,4R,5R,6R)-2-((3’-Cyano-[1,1’-biphenyl]-2-yl)oxy)-4,5-dihydroxy-6-(hydroxymethyl)tetrahydro-2H-pyran-3-yl)acetamide]",970 nM
14,"CC(=O)N[C@H]1[C@H](Oc2ccccc2-c2cccc(C(F)(F)F)c2)O[C@H](CO)[C@H](O)[C@@H]1O [Compound 40, N-((2S,3R,4R/5R/6R)-4/5-Dihydroxy-6-(hydroxymethyl)-2-((3’-(tri-fluoromethyl)-[1,1’-biphenyl]-2-yl)oxy)tetrahydro-2H-pyran-3-yl) acetamide]",1500 nM
15,"CC(=O)N[C@H]1[C@H](Oc2ccccc2-c2cccc(S(C)(=O)=O)c2)O[C@H](CO)[C@H](O)[C@@H]1O [Compound 41, N-((2S,3R,4R,5R,6R)-4,5-Dihydroxy-6-(hydroxymethyl)-2-((3’- (methylsulfonyl)-[1,1’-biphenyl]-2-yl)oxy)tetrahydro-2H-pyran-3-yl)acetamide]",700 nM
16,"CC(=O)N[C@H]1[C@H](Oc2ccccc2-c2cccc(CO)c2)O[C@H](CO)[C@H](O)[C@@H]1O [Compound 42, N-((2S,3R,4R/5R/6R)-4/5-Dihydroxy-6-(hydroxymethyl)-2-((3’-(hy-droxymethyl)-[1,1’-biphenyl]-2-yl)oxy)tetrahydro-2H-pyran-3-yl)-acetamide]",630 nM
17,"CC(=O)Nc1cccc(-c2ccccc2O[C@@H]2O[C@H](CO)[C@H](O)[C@H](O)[C@H]2NC(C)=O)c1 [Compound 43, N-(2’-(((2S,3R,4R,5R,6R)-3-Acetamido-4,5-dihydroxy-6-(hydroxymethyl)tetrahydro-2H-pyran-2-yl)oxy)-[1,1’-biphenyl]-3-yl)acetamide]",310 nM
18,"COC(=O)Nc1cccc(-c2ccccc2O[C@@H]2O[C@H](CO)[C@H](O)[C@H](O)[C@H]2NC(C)=O)c1 [Compound 45, Methyl(2’-(((2S,3R/4R/5R,6R)-3-Acetamido-4/5-dihydroxy-6-(hydroxymethyl)tetrahydro-2H-pyran-2-yl)oxy)-[1,1’-biphenyl]-3 yl)carbamate]",630 nM
19,"CC(=O)N[C@H]1[C@H](Oc2ccccc2-c2cccc(C(=O)N(C)C)c2)O[C@H](CO)[C@H](O)[C@@H]1O [Compound 46, 2’-(((2S,3R,4R,5R,6R)-3-Acetamido-4,5-dihydroxy-6-(hydroxymethyl)tetrahydro-2H-pyran-2-yl)oxy)-N,N-dimethyl-[1,1’- biphenyl]-3-carboxamide]",3100 nM
20,"CNC(=O)c1cccc(-c2ccccc2O[C@@H]2O[C@H](CO)[C@H](O)[C@H](O)[C@H]2NC(C)=O)c1 [Compound 47, 2’-(((2S,3R,4R,5R,6R)-3-Acetamido-4,5-dihydroxy-6-(hydroxymethyl)tetrahydro-2H-pyran-2-yl)oxy)-N-methyl-[1,1’-bi-phenyl]-3-carboxamide]",3400 nM
21,"CC(=O)N[C@H]1[C@H](Oc2ccccc2-c2cccc(C(N)=O)c2)O[C@H](CO)[C@H](O)[C@@H]1O [Compound 48, 2’-(((2S,3R,4R,5R,6R)-3-Acetamido-4,5-dihydroxy-6 (hydroxymethyl)tetrahydro-2H-pyran-2-yl)oxy)-[1,1’-biphenyl]-3-carboxamide]",1600 nM
22,"CC(=O)N[C@H]1[C@H](Oc2ccccc2-c2cccc(NS(=O)(=O)C(F)(F)F)c2)O[C@H](CO)[C@H](O)[C@@H]1O [Compound 49, N-((2S,3R,4R,5R,6R)-4,5-Dihydroxy-6-(hydroxymethyl)-2-((3’-((trifluoromethyl)sulfonamido)-[1,1’-biphenyl]-2-yl)oxy)-tetrahydro-2H-pyran-3-yl)acetamide]",1100 nM
23,"CC(=O)N[C@H]1[C@H](Oc2ccccc2-c2cccc(NS(C)(=O)=O)c2)O[C@H](CO)[C@H](O)[C@@H]1O [Compound 50, N-((2S,3R,4R,5R,6R)-4,5-Dihydroxy-6-(hydroxymethyl)-2-((3’- (methylsulfonamido)-[1,1’-biphenyl]-2-yl)oxy)tetrahydro-2H-pyran-3-yl)acetamide]",230 nM
24,"CS(=O)(=O)Nc1cccc(-c2ccccc2O[C@@H]2O[C@H](CO)[C@H](O)[C@H](O)[C@H]2O)c1 [Compound 51, N-(2’-(((2S,3R,4S,5R,6R)-3,4,5-Trihydroxy-6-(hydroxymethyl)-tetrahydro-2H-pyran-2-yl)oxy)-[1,1’-biphenyl]-3-yl)-methanesulfonamide]",1600 nM
25,"CC(=O)N[C@H]1[C@H](Oc2cccc([N+](=O)[O-])c2-c2cccc(NS(C)(=O)=O)c2)O[C@H](CO)[C@H](O)[C@@H]1O [Compound 78, N-((2S,3R,4R,5R,6R)-4,5-Dihydroxy-6-(hydroxymethyl)-2-((3’- (methylsulfonamido)-6-nitro-[1,1’-biphenyl]-2-yl)oxy)tetrahydro-2H-pyran-3-yl)acetamide]",58 nM
26,"CC(=O)N[C@H]1[C@H](Oc2cccc(C#N)c2-c2cccc(NS(C)(=O)=O)c2)O[C@H](CO)[C@H](O)[C@@H]1O [Compound 79, N-((2S,3S,4R,5R)-2-((6-Cyano-3’-(methylsulfonamido)-[1,1’-bi-phenyl]-2-yl)oxy)-4,5-dihydroxy-6-(hydroxymethyl)tetra’hydro-2H-pyran-3-yl)acetamide]",44 nM
